Results from ChEMBL document CHEMBL1132322, “Paullones, a series of cyclin-dependent kinase inhibitors: synthesis, evaluation of CDK1/cyclin B inhibition, and in vitro antitumor activity” (J Med Chem, 1999).

Test system: Tumor Cell line
Experiment: cells
Details: Homo sapiens, read-out: Log GI50 (converted)

| Compound | GI50 [µM] |
| --- | --- |
| COC(=O)CN1C(=O)Cc2c([nH]c3ccc(Br)cc23)-c2ccccc21 | 31.6 |
| O=C1Cc2c([nH]c3ccc([N+](=O)[O-])cc23)-c2ccccc2N1 [ALSTERPAULLONE] | 0.316 |
| CCN1C(=O)Cc2c([nH]c3ccc(Br)cc23)-c2ccccc21 | 12.6 |
| O=C1Cc2c([nH]c3ccc(Br)cc23)-c2ccccc2N1Cc1ccccc1 [PAULLONE] | 100 |

Test system: Tumor Cell line
Experiment: cells
Assay type: functional
Details: Homo sapiens

| Compound | GI50 [µM] |
| --- | --- |
| O=C1Cc2c([nH]c3ccc(Br)cc23)-c2ccccc2N1 [KENPAULLONE] | 39.8 |
| ONC1=Nc2ccccc2-c2[nH]c3ccc(Br)cc3c2C1 | 10 |
| O=C1Cc2c([nH]c3ccccc23)-c2ccccc2N1 [PAULLONE] | 31.6 |
| CCc1cccc2c3c([nH]c12)-c1ccccc1NC(=O)C3 | 63.1 |
| O=C1Cc2c([nH]c3cc(Br)ccc23)-c2ccccc2N1 | 15.8 |
| O=C1Cc2c([nH]c3ccc(Br)cc23)-c2cc(Br)ccc2N1 | 100 |
| O=C1Cc2c([nH]c3ccc(Cl)cc23)-c2ccccc2N1 | 79.4 |
| O=C1Cc2c([nH]c3ccccc23)-c2cc(Br)ccc2N1 | 100 |
| COc1cccc2c1NC(=O)Cc1c-2[nH]c2ccccc12 | 79.4 |
| N#Cc1ccc2[nH]c3c(c2c1)CC(=O)Nc1ccccc1-3 [PAULLONE 2] | 79.4 |
| O=C1Cc2c([nH]c3ccc(Br)cc23)-c2cc(O)c(O)cc2N1 | 100 |
| CN1CCC(c2c(O)cc(O)c3c(=O)cc(-c4ccccc4Cl)oc23)[C@@H](O)C1 (stereo not given in full) | 0.0631 |
| O=C1Cc2c([nH]c3c(Br)cccc23)-c2ccccc2N1 | 50.1 |
| O=C1Cc2c([nH]c3c(Cl)cccc23)-c2ccccc2N1 | 100 |

Test system: Tumor Cell line
Experiment: cells
Details: Homo sapiens, read-out: Log GI50 (converted)
Remark: another data set of the same source

| Compound | GI50 [µM] |
| --- | --- |
| O=C1Cc2c([nH]c3ccc([N+](=O)[O-])cc23)-c2ccccc2N1 [ALSTERPAULLONE] | 0.398 |
| CCN1C(=O)Cc2c([nH]c3ccc(Br)cc23)-c2ccccc21 | 25.1 |
| O=C1Cc2c([nH]c3ccc(Br)cc23)-c2ccccc2N1Cc1ccccc1 [PAULLONE] | 31.6 |
| CN1C(=O)Cc2c([nH]c3ccc(Br)cc23)-c2ccccc21 | 31.6 |

Test system: HCT-116
Experiment: cells
Assay type: functional
Details: Homo sapiens
Description: The logarithmic molar concentration inhibiting 50% net cell growth was measured on HCT116 (M) colon cancer cell lines.

| Compound | GI50 [µM] |
| --- | --- |
| ONC1=Nc2ccccc2-c2[nH]c3ccc(Br)cc3c2C1 | 6.31 |
| O=C1Cc2c([nH]c3ccccc23)-c2ccccc2N1 [PAULLONE] | 15.8 |
| CCc1cccc2c3c([nH]c12)-c1ccccc1NC(=O)C3 | 79.4 |
| O=C1Cc2c([nH]c3cc(Br)ccc23)-c2ccccc2N1 | 3.16 |
| O=C1Cc2c([nH]c3ccc(Cl)cc23)-c2ccccc2N1 | 3.16 |
| O=C1Cc2c([nH]c3ccccc23)-c2cc(Br)ccc2N1 | > 100 |
| N#Cc1ccc2[nH]c3c(c2c1)CC(=O)Nc1ccccc1-3 [PAULLONE 2] | 20 |
| CN1CCC(c2c(O)cc(O)c3c(=O)cc(-c4ccccc4Cl)oc23)[C@@H](O)C1 (stereo not given in full) | 0.0251 |
| O=C1Cc2c([nH]c3ccc(Br)cc23)-c2ccccc2N1Cc1ccccc1 [PAULLONE] | 20 |
| O=C1Cc2c([nH]c3c(Cl)cccc23)-c2ccccc2N1 | > 100 |

Test system: HCT-116
Experiment: cells
Assay type: functional
Details: Homo sapiens
Remark: another data set of the same source
Description: The logarithmic molar concentration inhibiting 50% net cell growth was measured on HCT116 (M)colon cancer cell lines (in experiment 2)

| Compound | GI50 [µM] |
| --- | --- |
| CSC1=Nc2ccccc2-c2[nH]c3ccc(Br)cc3c2C1 | 1.58 |
| CCN1C(=O)Cc2c([nH]c3ccc(Br)cc23)-c2ccccc21 | 12.6 |

Test system: HCT-116
Experiment: cells
Assay type: functional
Details: Homo sapiens
Remark: another data set of the same source
Description: The logarithmic molar concentration inhibiting 50% net cell growth was measured on HCT116 (M)colon cancer cell lines (in experiment 1)

| Compound | GI50 [µM] |
| --- | --- |
| CCN1C(=O)Cc2c([nH]c3ccc(Br)cc23)-c2ccccc21 | > 100 |
